The results in this text go back to article PMC5813016 (Nature Communications, 2018).

“And” between values parts separate entries of the source, which are not always exact repeats. Equal entries are not always repeated.

Test [1] deals with Human PDE3A1 (Homo sapiens, UniProt Q14432). The experiment in a line: PDE SPA assay, PDE3A1. It counts as biochemical. The method, then:
(§1) PDE assays: The PDE assays measures the conversion of 3′, 5′-[^3H] cAMP to 5′-[^3H] AMP (for PDE 3A1 and 4D3) or 3′, 5′-[^3H] cGMP to 5′-[^3H] GMP (for PDE 5A1) by the relevant PDE enzyme subtype. Yttrium silicate (YSi) scintillation proximity (SPA) beads bind selectively to 5′-[^3H] AMP or 5′-[^3H] […] The assay was performed in white walled opaque bottom 384-well plates. One microliter of compound in dimethyl sulfoxide was added to each well. Enzyme solution was then added to each well in buffer (in mM: Trizma, 50 (pH7.5); MgCl2, 1.3 mM). […] The reaction was terminated by the addition of 20 µl of PDE YSi SPA beads (Perkin Elmer). Following an additional 8 h incubation period the plates were read on a MicroBeta radioactive plate counter (Perkin Elmer) to determine radioactive counts per well.
(§2) In vitro data analysis: Agonist/antagonist curves were plotted from individual experiments, and EC50/IC50 values were determined using a four parameter logistic fit.

Test [2] has as its target T1, Human D4R (Homo sapiens, UniProt P21917).
T1 sequence (P21917 1-419): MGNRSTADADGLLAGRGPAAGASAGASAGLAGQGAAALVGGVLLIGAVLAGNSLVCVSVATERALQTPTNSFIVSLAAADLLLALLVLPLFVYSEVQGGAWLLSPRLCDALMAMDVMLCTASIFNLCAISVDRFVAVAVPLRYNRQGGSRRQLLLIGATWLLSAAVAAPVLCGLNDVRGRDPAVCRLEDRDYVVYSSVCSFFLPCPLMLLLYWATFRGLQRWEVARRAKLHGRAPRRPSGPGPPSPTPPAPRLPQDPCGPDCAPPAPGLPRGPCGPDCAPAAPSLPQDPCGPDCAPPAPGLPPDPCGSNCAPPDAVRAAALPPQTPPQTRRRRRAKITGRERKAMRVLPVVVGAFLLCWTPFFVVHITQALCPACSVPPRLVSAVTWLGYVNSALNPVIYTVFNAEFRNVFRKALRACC
The experiment in a line: Human D4R binding.

For test [3], the target named is T2, Norepinephrine Transporter (Homo sapiens, UniProt P23975).
T2 construct: expressed in transfected cells
T2 sequence (P23975 whole entry, species assumed): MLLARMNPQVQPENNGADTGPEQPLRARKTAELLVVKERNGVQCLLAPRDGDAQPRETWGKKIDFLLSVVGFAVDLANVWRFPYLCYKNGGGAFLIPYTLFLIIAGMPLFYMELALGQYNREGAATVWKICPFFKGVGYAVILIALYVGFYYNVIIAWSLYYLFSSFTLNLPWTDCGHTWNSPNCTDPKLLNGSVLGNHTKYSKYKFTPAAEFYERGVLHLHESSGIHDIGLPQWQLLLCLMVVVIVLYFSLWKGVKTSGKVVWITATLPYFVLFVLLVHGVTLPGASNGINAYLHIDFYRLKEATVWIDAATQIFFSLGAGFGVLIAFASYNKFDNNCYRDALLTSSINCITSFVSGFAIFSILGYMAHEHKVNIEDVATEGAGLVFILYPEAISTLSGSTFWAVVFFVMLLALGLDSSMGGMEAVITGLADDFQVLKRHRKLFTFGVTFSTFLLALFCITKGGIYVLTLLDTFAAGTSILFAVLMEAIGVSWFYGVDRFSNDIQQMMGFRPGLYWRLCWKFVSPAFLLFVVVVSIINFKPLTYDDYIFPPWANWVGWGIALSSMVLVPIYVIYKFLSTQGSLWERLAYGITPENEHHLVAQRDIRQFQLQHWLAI
Briefly: Amine transporter dye uptake assay, NET. It counts as cell-based. The settings on record: read-out: Norepinephrine Transporter, Inhibitor IC50. How it is done:
HBSS/HEPES containing compound (5 µl) was added to the wells of black walled clear bottomed 384-well plate. Transporter dye (25 µl) (Molecular Devices; Cat # R8174) was added to each well. Finally 15,000 cells (20 µl) stably expressing the amine transporter of interest were added to each well and the plate is incubated at 37 °C for 30 min (DAT) or 60 min (NET and SERT). The plate is transferred to the FLIPR Tetra® instrument and the fluorescence of each well was measured (Ex […]). The level of fluorescence measured directly relates to the level of uptake of the dye labelled amine, with a reduction in levels being related to an inhibition of the respective transporter.
as §2

The target of test [4] is Human PDE4D3 (Homo sapiens, UniProt Q08499). Briefly: PDE SPA assay, PDE4D3. It counts as biochemical. The method, then:
as §1, §2

Test [5] addresses T3, Histamine 1 (Homo sapiens, UniProt P35367).
T3 construct: expressed in transfected cells
The experiment in a line: FLIPR calcium assay, histamine 1. Format: cell-based. The following applies: for EC50: read-out: Histamine 1, Agonist EC50; for IC50: vs EC80 of agonist, read-out: Histamine 1, Antagonist IC50. The method, then:
Activation of the receptor by an agonist in this assay system results in an increase in intracellular calcium levels which is measured using a calcium specific dye. Cells were plated at 7500 cells per well (50 µl per well) in black walled clear bottomed 384-well plates 24 h prior to running the assay. […] Compound solution (10 µl) was added to each well by the FLIPR Tetra® instrument to measure agonist activity of the compound by measuring the change in fluorescence from baseline over a 60 s period (Ex […]). Subsequently 10 µl of agonist (EC80 value) was added to each well by the FLIPR Tetra® instrument to evaluate antagonist activity, with the change in fluorescence from baseline being measured over a 60 s period.
as §2

The subject of test [6] is human D1R S188A mutant. Briefly: cAMP assay, D1R mutant S188A. The settings on record: relative to wild-type D1R; each table line is one experiment (Experiment # 1-6). In general terms: Changes in cAMP serve as a functional read-out for many G protein-coupled receptors.
For test [7], the target named is rat D1R (rD1R) (Rattus norvegicus, UniProt P18901). Briefly: Rat D1R radioligand binding ([3H]-SCH23390, HEK293).
rat D1R (rD1R), sequence (P18901 whole entry): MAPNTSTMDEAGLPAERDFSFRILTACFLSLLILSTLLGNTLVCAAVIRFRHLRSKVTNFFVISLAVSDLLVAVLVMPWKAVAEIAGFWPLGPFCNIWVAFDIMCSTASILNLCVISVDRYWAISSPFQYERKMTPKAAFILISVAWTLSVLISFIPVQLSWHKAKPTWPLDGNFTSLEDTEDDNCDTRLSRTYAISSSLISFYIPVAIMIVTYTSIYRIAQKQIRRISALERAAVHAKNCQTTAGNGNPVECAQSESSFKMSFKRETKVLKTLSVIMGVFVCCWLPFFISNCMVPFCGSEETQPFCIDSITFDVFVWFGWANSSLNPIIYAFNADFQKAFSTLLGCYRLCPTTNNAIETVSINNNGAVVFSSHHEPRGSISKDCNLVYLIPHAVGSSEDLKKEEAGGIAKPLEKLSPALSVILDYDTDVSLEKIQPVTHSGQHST
Method: Binding assays were performed using stably expressed human D1R LTK, HEK293 rat D1R (rD1R), CHO human D2R (hD2R), CHO human D3R, and Millipore CHEM-1 human D5R (HTS129M) cell lines or primary striatal tissue from cynomolgus monkey brain. […] These ligand and tissue concentrations were used in time course studies to determine linearity and equilibrium conditions for binding. Binding reached equilibrium with the specified amount of tissue by 30 min at 37 °C for hD1R, rD1R, mD1R, 20 min at 37 °C for D2R and D3R and 60 min at room temperature for D5R. […] Membrane radioligand levels were determined by liquid scintillation counting of the filter plates in 50 µl Ecolume. […] Ki values were calculated according to the Cheng-Prusoff equation.

The term IC50 denotes the midpoint of a concentration-inhibition curve. The term Ki denotes the dissociation constant of the complex between target and ligand, obtained from inhibition or displacement. Read a high Ki as weaker binding. What is called EC50 is the midpoint of the concentration-response curve.

Human PDE4D3, sequence (Q08499 1-673 isoform Q08499-2): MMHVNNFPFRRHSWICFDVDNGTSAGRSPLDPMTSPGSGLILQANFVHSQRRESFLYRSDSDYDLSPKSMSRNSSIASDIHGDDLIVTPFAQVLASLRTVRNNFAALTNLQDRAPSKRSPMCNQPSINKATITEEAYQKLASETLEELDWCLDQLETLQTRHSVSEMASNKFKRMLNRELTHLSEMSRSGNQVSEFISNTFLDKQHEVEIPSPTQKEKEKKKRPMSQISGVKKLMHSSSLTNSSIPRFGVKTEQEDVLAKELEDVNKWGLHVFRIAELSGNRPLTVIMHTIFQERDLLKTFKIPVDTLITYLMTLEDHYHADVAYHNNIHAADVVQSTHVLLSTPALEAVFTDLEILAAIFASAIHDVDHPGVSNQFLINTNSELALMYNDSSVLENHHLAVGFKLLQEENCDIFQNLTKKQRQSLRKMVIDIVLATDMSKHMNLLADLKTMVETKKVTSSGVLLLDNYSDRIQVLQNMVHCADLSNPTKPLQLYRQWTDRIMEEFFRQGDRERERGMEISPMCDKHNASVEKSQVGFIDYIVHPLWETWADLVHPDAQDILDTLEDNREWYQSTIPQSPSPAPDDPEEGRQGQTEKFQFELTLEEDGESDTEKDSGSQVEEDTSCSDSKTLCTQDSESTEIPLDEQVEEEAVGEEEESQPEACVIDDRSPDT
T3 sequence (P35367 whole entry): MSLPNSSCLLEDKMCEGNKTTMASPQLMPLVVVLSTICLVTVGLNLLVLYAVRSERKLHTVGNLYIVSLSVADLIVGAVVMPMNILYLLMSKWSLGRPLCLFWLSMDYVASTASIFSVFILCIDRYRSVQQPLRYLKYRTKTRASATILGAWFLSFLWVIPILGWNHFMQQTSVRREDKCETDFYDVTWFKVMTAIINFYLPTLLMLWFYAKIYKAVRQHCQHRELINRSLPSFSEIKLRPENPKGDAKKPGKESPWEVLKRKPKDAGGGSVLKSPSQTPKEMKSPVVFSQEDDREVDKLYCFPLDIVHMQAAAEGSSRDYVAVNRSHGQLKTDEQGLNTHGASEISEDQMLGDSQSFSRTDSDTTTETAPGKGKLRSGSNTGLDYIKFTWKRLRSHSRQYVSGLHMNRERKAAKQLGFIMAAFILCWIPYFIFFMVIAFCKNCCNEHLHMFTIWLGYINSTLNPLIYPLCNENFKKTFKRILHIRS
Human PDE3A1, sequence (Q14432 whole entry): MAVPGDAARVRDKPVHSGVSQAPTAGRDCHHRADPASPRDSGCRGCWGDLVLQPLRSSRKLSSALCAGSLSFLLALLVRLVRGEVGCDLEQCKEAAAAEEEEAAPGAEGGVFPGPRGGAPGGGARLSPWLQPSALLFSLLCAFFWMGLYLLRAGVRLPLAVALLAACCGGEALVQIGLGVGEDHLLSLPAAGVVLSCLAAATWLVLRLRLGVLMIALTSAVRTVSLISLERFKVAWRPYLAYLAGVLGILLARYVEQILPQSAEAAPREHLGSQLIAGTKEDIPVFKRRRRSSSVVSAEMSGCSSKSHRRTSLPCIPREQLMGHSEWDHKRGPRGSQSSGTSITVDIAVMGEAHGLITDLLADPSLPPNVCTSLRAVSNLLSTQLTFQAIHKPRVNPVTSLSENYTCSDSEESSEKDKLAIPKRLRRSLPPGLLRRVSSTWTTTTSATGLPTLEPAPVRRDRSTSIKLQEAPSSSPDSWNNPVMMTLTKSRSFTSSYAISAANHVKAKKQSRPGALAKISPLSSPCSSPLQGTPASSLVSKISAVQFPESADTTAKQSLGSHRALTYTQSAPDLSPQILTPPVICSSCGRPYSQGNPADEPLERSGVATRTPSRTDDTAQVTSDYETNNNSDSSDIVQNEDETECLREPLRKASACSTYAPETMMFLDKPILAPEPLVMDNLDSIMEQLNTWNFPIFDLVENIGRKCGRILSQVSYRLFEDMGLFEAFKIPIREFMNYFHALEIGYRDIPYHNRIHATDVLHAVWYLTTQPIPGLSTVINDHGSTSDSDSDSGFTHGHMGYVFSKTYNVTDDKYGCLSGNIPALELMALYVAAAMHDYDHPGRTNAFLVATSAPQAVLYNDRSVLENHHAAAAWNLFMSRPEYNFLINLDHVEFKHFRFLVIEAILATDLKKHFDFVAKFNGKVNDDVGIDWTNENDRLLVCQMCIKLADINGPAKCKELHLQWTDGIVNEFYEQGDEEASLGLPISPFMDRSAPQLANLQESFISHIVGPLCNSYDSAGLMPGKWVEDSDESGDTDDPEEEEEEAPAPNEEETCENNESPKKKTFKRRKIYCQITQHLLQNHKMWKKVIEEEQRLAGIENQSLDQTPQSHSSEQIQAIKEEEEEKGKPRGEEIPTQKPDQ

For the compound `Cc1cc(Oc2nccc3occc23)ccc1-c1c(C)cnnc1C` [PF-1119], the concentration for half-maximal inhibition (IC50) is 9.21 µM in test [1], above 10 µM in test [3], 1.81 µM in test [4] and above 10 µM in test [5]. The compound also yielded a Ki in test [2] above 10 µM. In addition, the concentration for a half-maximal effect (EC50) in test [5] was above 10 µM.
As to `Cc1cc(Oc2cccc(O)c2O)ccc1-c1c(C)ncnc1C` [PF-1437], the Ki in test [2] is above 10 µM. In addition, in test [6], the “fold shift of cAMP functional potency, S188A (EC50 mutant/ EC50 WT)” value (“fold shift of cAMP functional potency” below) was 1.0 and 0.8 and 0.7.
As for `Cc1n[nH]c(=O)c(C)c1-c1ccc(Oc2nccc3occc23)cc1F` [PF-2334], the Ki in test [2] is above 10 µM.
On to `Cc1cc(Oc2nccc3occc23)ccc1-c1c(C)ncc2nccn12` [PF-6142], for which the affinity in test [7] corresponds to a Ki of 0.018 ± 0.004 µM. For the same compound, the IC50 in test [1] was 5.12 µM; in test [3] it was above 10 µM; in test [4], above 10 µM; in test [5], 4.56 µM. In addition, the “fold shift of cAMP functional potency” value in test [6] was 2.3 and 2.0. The half-maximal effective concentration (EC50) in test [5] is above 10 µM.
With `Cc1cc(Oc2nccc3occc23)ccc1-n1c(C)nc2cnccc21` [PF-8294], in test [7], the affinity corresponds to a Ki of 0.164 ± 0.164 µM. In addition, the half-inhibitory concentration (IC50) in test [1], in test [3], in test [4] and in test [5] was above 10 µM each time. In addition, in test [5], the EC50 was above 10 µM.
As to `Cc1cc(Oc2nccc3occc23)ccc1-c1c(C)ncnc1C` [PF-8871], the Ki in test [7] is 0.021 ± 0.003 µM; in test [2], above 10 µM. The IC50 in test [1], in test [3], in test [4] and in test [5] was above 10 µM in each case. Moreover, in test [6], the “fold shift of cAMP functional potency” value is on record as 0.6. The EC50 in test [5] is above 10 µM.
